According to patent US20240115554A1, “METHODS FOR TREATING OBSTRUCTIVE HYPERTROPHIC CARDIOMYOPATHY” (Cytokinetics, Incorporated, priority 2022, published 2024):
Entries after “also recorded” stand apart in the source; their conditions may differ.

Columns and labels:
[1] = tested on: patients with symptomatic obstructive HCM (oHCM); experiment: Phase 2 trial: NYHA functional class; assay type: in vivo, human
Excerpt: Secondary results from the clinical study included data from Cohort 3 (n=13). […] Overall, treatment duration for each patient in the study was 10 weeks with an echocardiogram conducted 2 weeks after the last dose. Efficacy endpoints included resting and provoked LVOT gradients, NYHA class, and NT-proBNP.

[2] = tested on: patients with symptomatic oHCM; experiment: Open-label extension: echocardiography (LVOT-G, LVEF); assay type: in vivo, human
Procedure: Patients were up-titrated to Dose 2 if either of the following conditions were met on echocardiography: (1) resting LVOT-G ≥30 mmHg and the biplane LVEF ≥50%; or (2) resting LVOT-G <30 mmHg, post-Valsalva LVOT-G ≥50 mmHg, and the biplane LVEF ≥50%. […] If LVEF was <50%, treatment was discontinued. If LVEF was <40%, treatment is interrupted.
Ambulatory cardiac monitoring is performed on weeks 48, 96, 144, 192 and 240. Cardiac magnetic resonance is monitored at weeks 48, 144 and 240. (See FIG. 26).
At Week 2, each patient has a truncated echocardiogram following administration of their dose. Patients are up-titrated to Dose 2 if post-Valsalva LVOT-G ≥30 mmHg, and the biplane LVEF ≥55%. […] If LVEF is <50%, treatment is discontinued.
At Weeks 4, 6, 12, and every 12 weeks thereafter, each patient has an echocardiogram or truncated echocardiogram following administration of their dose (a truncated echocardiogram at weeks 4 and 6; and an echocardiogram at week 12 and every 12 weeks thereafter) to determine whether additional dose titration is needed (see Table 21 and Table 22). Patient reported outcomes, laboratory assessments, measurements of NT-proBNP, hs-cTnI, and other biomarkers are performed at week 12 and every 12 weeks thereafter. Ambulatory cardiac monitoring is performed on weeks 48, 96, 144, 192 and 240 Cardiac magnetic resonance is monitored at weeks 48, 144 and 240. If a patient develops an LVEF <40% after the Week 2 visit, a repeat echocardiogram may be performed to confirm the initial finding (preferably within 24 hours). If the echocardiography findings are confirmed, the patient will undergo a ≥2-day drug holiday.
Echocardiographic parameters to be measured at least include the left ventricular parameters (resting left ventricular outflow tract pressure gradient (LVOT-G), post-Valsalva LVOT-G, LVEF, LVFS, left ventricular strain, left ventricular end diastolic volume (LVEDV), left ventricular end systolic volume (LVESV), LV Stroke Volume), septal and free wall thickness, E/e′, E/A, LA volume.

[3] = tested on: patients with symptomatic oHCM; experiment: Open-label extension: Kansas City Cardiomyopathy Questionnaire (KCCQ); assay type: in vivo, human
Procedure: Change in KCCQ scores from baseline, including OSS=overall summary score, CSS=clinical summary score, TSS=total symptom score, PLS=physical limitation score, SLS=social limitation score, QoL=quality of life, were determined. Patients were categorized with worsened (≤−5 points), unchanged (−5 to <5 points), small improvement (5 to <10 points), moderate to large improvement (10 to <20 points), and large to very large improvement (≥20 points) relative to baseline.

[4] = tested on: patients with symptomatic oHCM; experiment: Open-label extension: background therapy reduction/withdrawal (BTR/W); assay type: in vivo, human
Procedure: Patients were dosed following the protocol of Example 3a or Example 3b. Patients were classified as receiving SoC therapy (both first line and second line) if treated with at least one beta-blocker (BB), non-dihydropyridine calcium channel blocker (CCB), or disopyramide. […] Successful BTR/W was defined as at least a dose-reduction of one medication to ≤50% of baseline. Serial metrics were collected per protocol but side effects specifically related to SoC therapy were not.

[5] = tested on: patients with symptomatic oHCM; experiment: Open-label extension: global longitudinal strain (GLS) by echocardiography; assay type: in vivo, human; conditions: baseline −13.9%±3.2
Procedure: GLS analysis was performed using a vendor-neutral analysis package (TOMTEC® Imaging Systems).

[6] = tested on: patients with symptomatic oHCM; experiment: Open-label extension: SRT eligibility per guideline criteria; assay type: in vivo, human; conditions: Week 48 visit; 19 patients (42%) eligible at baseline
Excerpt: There was a substantial reduction in peak resting and Valsalva LVOT-G from baseline to week 48 [ΔResting mean: −32 mmHg (±28); Δ Valsalva mean: −47 mmHg (±28)] (see FIG. 53 and FIG. 54, respectively). […] There was substantial improvement in NYHA class: by week 48, 88% of patients experienced ≥1 NYHA FC improvement while none had NYHA FC worsening (see FIG. 56). At baseline, 19 patients (42%) were eligible for SRT per guideline criteria of symptoms and hemodynamics, despite receiving beta-blocker, (78%) calcium channel blocker (18%), and disopyramide (22%). […] NT pro-BNP decreased from baseline to Week 48 (from a geometric mean [CV %] of 651.0 [160.4] to 111.1 [93.4] pg/mL), representing a […] reduction from baseline (p<0.0001).

[7] = tested on: patients with symptomatic obstructive HCM (oHCM); experiment: Phase 2 trial: safety and tolerability
Excerpt: Seventeen investigative sites in North America and Europe screened for patients to enroll in Cohorts 1 and 2.
The first two cohorts (Cohort 1 and Cohort 2) excluded patients receiving disopyramide. Cohort 3 included patients receiving disopyramide. […] Overall, the treatment duration was 10 weeks with a 4-week follow-up period after the last dose.

[8] = pooled aficamten Cohorts 1 and 2
[9] = Cohort 1, 21 randomized 2:1 aficamten (5, 10, 15 mg once daily) or placebo, 10 weeks
[10] = Cohort 2, 20 randomized 2:1 aficamten (10, 20, 30 mg once daily) or placebo, 10 weeks
[11] = Cohort 3, 13 patients, aficamten (5, 10, 15 mg once daily) on top of disopyramide, 10 weeks
[12] = Total, Cohorts 1-3, 54 patients

## CCc1nc(-c2ccc3c(c2)CC[C@H]3NC(=O)c2cnn(C)c2)no1 [aficamten, (R)—N-(5-(5-ethyl-1,2,4-oxadiazol-3-yl)-2,3-dihydro-1H-inden-1-yl)-1-methyl-1H-pyrazole-4-carboxamide]
[1]; Cohort 2
  patients with improvement in NYHA class by one or more classes: 64%
[1]; Cohort 3
  NYHA improvement in baseline class III patients: all baseline NYHA class III patients improved by ≥1 class
[1]; Cohort 3 (Eleven patients)
  patients with ≥1 NYHA class improvement: 85%
[1]; Cohorts 1 and 2
  patients converted from class III to class II or I: 7 patients
[1]; [8]
  patients who improved from NYHA class III to I: one
  patients who improved from NYHA class III to II: 6 patients
[1]; pooled aficamten Cohorts 1 and 2 (15 of 28)
  patients with change in NYHA class of one or more classes: 53%
[2]; Weeks 2-24, site reads, Example 3a
  reduction in LVOT gradients over time: significant and sustained reductions in LVOT gradients
[2]; baseline to week 48
  Δ LVEF: −5±3%
  Δ Valsalva LVOT-G mean: −47 mmHg
  ΔResting LVOT-G mean: −32 mmHg
[2]; through Week 24, Example 3a
  reductions in LVEF over time: minimal and stable reductions in LVEF
[3]; Week 12
  participants with clinically-important improvement (5 points on the KCCQ Overall Summary Score): 72.7%
  participants with very large clinical improvements in KCCQ: 36.4%
[3]; Week 24
  participants with clinically-important improvement (5 points on the KCCQ Overall Summary Score): 72.0%
  participants with very large clinical improvements in KCCQ: 40.0%
[3]; up to 6 months
  improvement in KCCQ domain scores: marked and sustained improvement in all KCCQ domain scores
[4]; 17 of 20 patients with attempted BTR/W
  patients achieving any successful BTR/W among those attempted: 85%
[4]; BTR/W
  patients who completely discontinued at least one SoC medication: 10 patients
  patients who withdrew from all SoC (aficamten monotherapy): 5 patients
[4]; post-BTR/W
  NT-pro B-type Natriuretic Peptide: 532 ± 934 pg/mL
  high-sensitivity troponin I: 5.1 ± 1.6 ng/L
[4]; post-BTR/W (N=14)
  mean HR after BTR/W: 74±10 bpm
  mean Valsalva LVOT-G after BTR/W: 42±26 mmHg
[4]; pre- vs post-BTR/W (N=14)
  increase in Valsalva LVOT-G after BTR/W: 15 mmHg
  increase in resting HR after BTR/W: 12 bpm
[4]; pre-BTR/W
  NT-pro B-type Natriuretic Peptide: 321 ± 424 pg/mL
  high-sensitivity troponin I: 4.8 ± 1.8 ng/L
[4]; reinstitution of BB
  patients with unsuccessful attempted BTR/W: 3 patients
[5]; week 12 (n=27)
  GLS: −14.3±3.0%
[5]; week 36-48 (n=27)
  GLS: −14.9%
[6]
  patients eligible for SRT per guideline criteria: none of these patients met these criteria; also recorded: eliminated SRT eligibility in all patients
[7]; Cohort 1
  patients with LVEF <50%: No patients
[7]; [9]
  Patients with TEAEs leading to drug interruption or termination: 0 N
  Patients with fatal TEAEs: 0 N
  TEAE of LVEF <50% (Core Lab): 0 N
[7]; Cohort 2, 20 mg
  patients with transient LVEF reduction to <50% requiring down titration: one patient
[7]; [10]
  Patients with TEAEs leading to drug interruption or termination: 0 N
  Patients with TESAEs: 0 N
  Patients with fatal TEAEs: 0 N
[7]; Cohort 3
  changes in QTc interval or vital signs: no significant changes in QTc interval, or vital signs
  moderate adverse events recorded: six
  patients with LVEF <50%: No patients experienced LVEF <50%
  serious adverse events, dose interruptions, discontinuations: no serious adverse events attributed to treatment; also recorded: no dose interruptions, treatment discontinuations, or serious adverse events
[7]; [11]
  Patients with TEAEs leading to drug interruption or termination: 0 N
  Patients with TESAEs: 0 N
  Patients with fatal TEAEs: 0 N
  TEAE of LVEF <50% (Core Lab): 0 N
[7]; Cohort 3, patient with known prior history
  adverse event of asymptomatic atrial fibrillation: One
[7]; Cohorts 1 and 2
  interruptions or discontinuations of treatment: no treatment interruptions; also recorded: No interruptions or discontinuations
  new cases of atrial fibrillation: No new cases of atrial fibrillation
  severity of adverse events: mild or moderate
  treatment related serious adverse events: No serious adverse events were attributed to aficamten; also recorded: no treatment related serious adverse events
[7]; Phase 2 cohorts
  reversibility of LVEF effect after end of treatment: returned towards baseline within two weeks after the end of treatment; also recorded: returned to baseline after the 2-week washout
[7]; [12]
  Patients with TEAEs leading to drug interruption or termination: 0 N
  Patients with fatal TEAEs: 0 N
